# Patent US5767088A, “Tachykinin antagonists” (Warner-Lambert Company, priority 1996, dated 1998)
# pIC50, pKd: −log10 of the molar value.
# How the values were obtained:
# NK3 receptor = target: T1, NK3 receptor (Homo sapiens, UniProt P29371); assay: NK3 receptor binding assay, [125I]-[MePhe7]neurokinin B, Chinese hamster ovary cell membranes; conditions: competition with [125I]-[MePhe7]neurokinin B 40-100 pM, 90 minutes at 22° C., CHO cell membranes
# T1 construct: host or cells: Chinese hamster ovary cells (membranes)
# T1 sequence (P29371 1-465): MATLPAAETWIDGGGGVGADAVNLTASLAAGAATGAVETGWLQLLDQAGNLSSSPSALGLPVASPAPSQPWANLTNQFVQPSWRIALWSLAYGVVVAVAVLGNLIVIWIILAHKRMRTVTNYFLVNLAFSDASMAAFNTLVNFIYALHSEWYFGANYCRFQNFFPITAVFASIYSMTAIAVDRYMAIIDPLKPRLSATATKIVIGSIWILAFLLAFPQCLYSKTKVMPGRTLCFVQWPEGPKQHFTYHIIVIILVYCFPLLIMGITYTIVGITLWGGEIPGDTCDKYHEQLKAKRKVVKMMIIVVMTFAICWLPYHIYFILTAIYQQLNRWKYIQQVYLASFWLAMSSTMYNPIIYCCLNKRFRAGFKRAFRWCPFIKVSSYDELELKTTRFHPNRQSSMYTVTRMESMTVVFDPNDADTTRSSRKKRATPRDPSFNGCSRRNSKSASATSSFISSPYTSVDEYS
# NK3 [1] = target: T2, NK3 (Cavia porcellus, UniProt P30098); assay: guinea pig ileum assay (Schild analysis of contractile responses); assay type: cell-based; design: in vitro peripheral guinea pig ileum assay; from tissue; host or cells: guinea pig ileum (organ bath); conditions: NK3 antagonist activity; antagonist dissociation constant by Schild analysis
# T2 sequence (P30098 1-440): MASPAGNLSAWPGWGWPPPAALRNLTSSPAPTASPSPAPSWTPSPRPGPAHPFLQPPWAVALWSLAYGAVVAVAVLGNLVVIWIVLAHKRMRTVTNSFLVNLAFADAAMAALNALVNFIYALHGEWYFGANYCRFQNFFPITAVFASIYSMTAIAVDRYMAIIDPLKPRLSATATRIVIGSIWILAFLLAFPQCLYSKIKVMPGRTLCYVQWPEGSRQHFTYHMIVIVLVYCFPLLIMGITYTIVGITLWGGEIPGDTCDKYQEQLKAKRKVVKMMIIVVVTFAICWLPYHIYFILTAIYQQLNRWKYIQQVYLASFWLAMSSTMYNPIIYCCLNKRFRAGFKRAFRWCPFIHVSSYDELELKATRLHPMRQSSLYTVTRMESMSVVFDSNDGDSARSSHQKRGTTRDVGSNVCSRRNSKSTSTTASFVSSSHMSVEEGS
# NK3 [2] = target: T2, NK3; assay: guinea pig medial habenula assay (block of senktide-induced increases in firing rate, brain slice); assay type: cell-based; design: guinea pig medial habenula neurones in a brain slice preparation in vitro; from tissue; host or cells: guinea pig medial habenula brain slice; conditions: NK3 antagonist activity; mean equilibrium constant against senktide; brain slice in vitro; read-out: Guinea Pig Medial Habenula (Ke)
Compound,pIC50 (NK3 receptor),Kb (NK3 [1]) [nM],pKd (NK3 [2])
"CC(Cc1ccccc1)(NC(=O)[C@H](Cc1ccccc1)NC(=O)OCC1CCCCC1)C(N)=O (mixture of isomers) [Example 16, DL-Phenylalaninamide, N-[(cyclohexylmethoxy)carbonyl]-L-phenylalanyl-α-methyl-]",5.91,–,–
"CC(C)COC(=O)N[C@@H](Cc1ccccc1)C(=O)NC(C)(Cc1ccccc1)C(N)=O (mixture of isomers) [Example 17, DL-Phenylalaninamide, N-[(2-methylpropoxy)carbonyl]-L-phenylalanyl-α-methyl-]",5.88,–,–
"CC(Cc1ccccc1)(NC(=O)[C@H](Cc1ccccc1)NC(=O)OCc1ccc(Cl)c(Cl)c1)C(N)=O (mixture of isomers) [Example 18, DL-Phenylalaninamide, N-[[(3,4-dichlorophenyl)-methoxy]carbonyl]-L-phenylalanyl-α-methyl-]",5.82,–,–
"CC(C)(C)OC(=O)N[C@@H](Cc1ccccc1)C(=O)NC(C)(Cc1cccc(Cl)c1)C(N)=O (mixture of isomers) [Example 20, DL-Phenylalaninamide, N-[(1,1-dimethylethoxy)carbonyl]-L-phenylalanyl-3-chloro-α-methyl-]",5.87,–,–
"CC(C)(C)OC(=O)NC(Cc1cccc(Cl)c1)C(=O)N[C@](C)(Cc1ccccc1)C(N)=O (mixture of isomers) [Example 21, D-Phenylalaninamide, 3-chloro-N-[(1,1-dimethylethoxy)-carbonyl]-DL-phenylalanyl-α-methyl-]",6.04,–,–
"CC(C)(C)OC(=O)N[C@@H](Cc1ccccc1)C(=O)N[C@](C)(Cc1ccccc1)C(=O)NCCCCCCCCC(N)=O [Example 2, D-Phenylalaninamide, N-[(1,1-dimethylethoxy)carbonyl]-L-phenylalanyl-N-(9-amino-9-oxononyl)-α-methyl-]",–,10,7.60
"CC(C)(C)OC(=O)NC(CNC(Cc1ccccc1)C(N)=O)Cc1ccccc1 (stereo not drawn) [Example 22, Carbamic acid, [2-[[2-amino-2-oxo-1-(phenylmethyl)-ethyl]amino]-1-(phenylmethyl)ethyl]-, 1,1-dimethylethyl ester]",5.36,–,–
"DL-Phenylalaninamide, N-[[(octahydro-2-naphthalenyl)-oxy]carbonyl]-L-phenylalanyl-α-methyl [Example 19]",5.51,–,–

# More lines, in order of rising pIC50 (NK3 receptor), values ahead:
pIC50 (NK3 receptor),Kb (NK3 [1]) [nM],pKd (NK3 [2]),Compound
6.14,–,–,"CC(C)(C)OC(=O)N[C@@H](Cc1ccccc1)C(=O)NC(C)(Cc1ccccc1)C(=O)NCC1CCC(C(=O)O)CC1 (mixture of isomers) [Example 13, DL-Phenylalaninamide, N-[(1,1-dimethylethoxy)carbonyl]-L-phenylalanyl-N-[(4-carboxycyclohexyl)methyl]-α-methyl-, trans-]"
6.25,–,–,"CC(C)(C)OC(=O)N[C@@H](Cc1ccccc1)C(=O)NC(C)(Cc1ccccc1)C(=O)NC1CCCC1 (mixture of isomers) [Example 7, DL-Phenylalaninamide, N-[(1,1-dimethylethoxy)carbonyl]-L-phenylalanyl-N-cyclopentyl-α-methyl-]"
6.74,–,–,"CC(=O)NCCNC(=O)C(C)(Cc1ccccc1)NC(=O)[C@H](Cc1ccccc1)NC(=O)OC(C)(C)C (mixture of isomers) [Example 10, DL-Phenylalaninamide, N-[(1,1-dimethylethoxy)carbonyl]-L-phenylalanyl-N-[2-(acetylamino)ethyl]-α-methyl-]"
6.85,–,–,"CC(C)(C)OC(=O)N[C@@H](Cc1ccccc1)C(=O)NC(C)(Cc1ccccc1)C(=O)NCCc1ccc(Cl)cc1 (mixture of isomers) [Example 12, DL-Phenylalaninamide, N-[(1,1-dimethylethoxy)carbonyl]-L-phenylalanyl-N-[2-(4-chlorophenyl)ethyl]-α-methyl-]"
6.89,–,–,"CC(C)(C)OC(=O)N[C@@H](Cc1ccccc1)C(=O)NC(C)(Cc1ccccc1)C(=O)NCCC1CCCC1 (mixture of isomers) [Example 11, DL-Phenylalaninamide, N-[(1,1-dimethylethoxy)carbonyl]-L-phenylalanyl-N-(2-cyclopentylethyl)-α-methyl-]"
6.91,–,–,"CC(C)CCNC(=O)C(C)(Cc1ccccc1)NC(=O)[C@H](Cc1ccccc1)NC(=O)OC(C)(C)C (mixture of isomers) [Example 5, DL-Phenylalaninamide, N-[(1,1-dimethylethoxy)carbonyl]-L-phenylalanyl-α-methyl-N-3-methylbutyl-]"
7.06,–,–,"CC(C)(C)OC(=O)N[C@@H](Cc1ccccc1)C(=O)NC(C)(Cc1ccccc1)C(=O)NCCCc1ccc(O)cc1 (mixture of isomers) [Example 4, DL-Phenylalaninamide, N-[(1,1-dimethylethoxy)carbonyl]-L-phenylalanyl-N-[3-(4-hydroxyphenyl)propyl]-α-methyl-]"
7.08,–,–,COc1ccc(CCCCNC(=O)[C@@](C)(Cc2ccccc2)NC(=O)[C@H](Cc2ccccc2)NC(=O)OC(C)(C)C)cc1 [Example 3]
7.11,–,–,"CC(C)(C)OC(=O)N[C@@H](Cc1ccccc1)C(=O)NC(C)(Cc1ccccc1)C(=O)NCCCCCc1ccccc1 (mixture of isomers) [Example 6, DL-Phenylalaninamide, N-[(1,1-dimethylethoxy)carbonyl]-L-phenylalanyl-α-methyl-N-(5-phenylpentyl)-]"
